Laboratory results taken from PMC11618052, “Design, synthesis, and antiproliferative activity of new 1,2,3-triazole/quinazoline-4-one hybrids as dual EGFR/BRAF^V600E inhibitors” (RSC Advances, 2024).
Where “and” joins values, the source holds several entries; their conditions need not be identical. Identical values can stand only once.

Legend:
Caspase-8 = Caspase-8 level assay in MCF-7; assay type: cell-based, human; details: for Caspase-8 Fold change: MCF-7, versus untreated control; for Caspase-8 Conc.: MCF-7 cancer cell line
Method: Compounds 8g and 8h were evaluated as caspase-3, 8 and Bax activators and as down-regulator of the anti-apoptotic protein Bcl2 against the MCF-7 breast cancer cell line.[40] Appendix A ^† contains more details.
Compound 8g had the most overexpression of caspase-8 (2.60 ng mL^−1), followed by compound 8h (2.10 ng mL^−1) and staurosporine as a control (1.80 ng mL^−1). […]
monitored, and the substrate reaction stopped before the O.D. of the positive wells exceeds the limits of the instrument. The O.D. values at 450 nm can only be read after the Stop Solution has been added to each well. If using a reader that records only to 2.0 O.D., stopping the assay after […]
Add 100 μl of Stop Solution to each well. Tap side of plate gently to mix. The solution in the wells should change from blue to yellow. Read the absorbance of each well at 450 nm having blanked the plate reader against a chromogen blank composed of 100 μl each of Stabilized Chromogen and Stop Solution. Read the plate within 2 hours after adding the Stop Solution. Use a curve fitting software to generate the standard curve. A four-parameter algorithm provides the best standard curve fit. Read the concentrations for unknown samples and controls from the standard curve. Multiply value(s) obtained for sample(s) by the appropriate dilution factor to correct for the dilution in step 3. Samples producing signals greater than that of the highest standard should be diluted in Standard Diluent Buffer and reanalyzed.
4.2.1.6. Caspase-8 activation assay
Cells were obtained from American Type Culture Collection, cells were grown in RPMI 1640 containing 10% fetal bovine serum at 37°C, stimulated with the compounds to be tested for caspase8, and lysed with Cell Extraction Buffer. This lysate was diluted in Standard Diluent Buffer over the range of the assay and measured for human active caspase-8 content. (Cells are Plated in a density of 1.2 – 1.8 × 10,000 cells/well in a volume of 100µl complete growth medium + 100 ul of the tested compound per well in a 96-well plate for 24 hours before the enzyme assay for Tubulin.). The absorbance of each microwell was read on a spectro-photometer at 450 nm. A standard curve is prepared from 7human Caspase-8 standard dilutions and human Caspase-8 concentration determined.
4.2.1.7. Bax activation assay

Bcl-2 = Bcl-2 level assay in MCF-7; assay type: cell-based, human; details: for Bcl-2 Fold reduction: MCF-7, versus untreated control; for Bcl-2 Conc.: MCF-7 cancer cell line
Method: Compounds 8g and 8h were evaluated as caspase-3, 8 and Bax activators and as down-regulator of the anti-apoptotic protein Bcl2 against the MCF-7 breast cancer cell line.[40] Appendix A ^† contains more details. […]
4.2.1.8. Bcl-2inhibition assay
Mix all reagents thoroughly without foaming before use. Wash the microwells twice with approximately 300 μL Wash Buffer per well with thorough aspiration of microwell contents between washes. Take caution not to scratch the surface of the microwells. After the last wash, empty the wells and tap microwell strips on absorbent pad or paper towel to remove excess Wash Buffer. Use the microwell strips immediately after washing or place upside down on a wet absorbent paper for not longer than 15 minutes. […] Add 100 μL of Sample […]
Diluent in duplicate to all standard wells and to the blank wells. Prepare standard (1:2 dilution) in duplicate ranging from 32 ng/mL to 0.5 ng/mL. Add 100 μL of Sample Diluent, in duplicate, to the blank wells. Add 80 μL of Sample Diluent, in duplicate, to the sample wells. Add 20 μL of each Sample, in duplicate, to the designated wells. Add 50 μL of diluted biotin-conjugate to all wells, including the blank wells. Cover with a plate cover and incubate at room temperature, on a microplate shaker at 100 rpm if available, for 2 hours. Remove plate cover and empty the wells.
Wash microwell strips 3 times as described in step 2. Add 100 μL of diluted Streptavidin-HRP to all wells, including the blank wells. Cover with a plate cover and incubate at room temperature, on a microplate shaker at 100 rpm if available, for 1 hour. Remove plate cover and empty the wells.
Wash microwell strips 3 times as described in step 2. Proceed to the next step. Pipette 100 μl of mixed TMB Substrate Solution to all wells, including the blanks. Incubate the microwell strips at room temperature (18° to 25°C) for about 15 minutes, if available on a rotator set at 100 rpm.
Avoid direct exposure to intense light. The point, at which the substrate reaction is stopped, is often determined by the ELISA reader. Many ELISA readers record absorbance only up to 2.0
O.D. Therefore, the color development within individual microwells must be watched by the person running the assay and the substrate reaction stopped before positive wells are no longer properly detectable. Stop the enzyme reaction by quickly pipetting 100 μL of Stop Solution into each well, including the blank wells. It is important that the Stop Solution is spread quickly and uniformly throughout the microwells to completely inactivate the enzyme. Results must be read immediately after the Stop Solution is added or within one hour if the microwell strips are stored at 2 - 8°C in the dark. Read absorbance of each microwell on a spectrophotometer using 450 nm as the primary wavelength. […]
(FITC) and propidium iodide (PI) staining kit (BD Pharmingen, San Diego, USA). […]
μL of FITC and PI were added to Eppendorf tube, cells were vortexed, incubated for 15 min at room temperature in dark. Subsequently, cells were analyzed by flow cytometry (Becton Dickinson, Franklin Lakes, and USA).

Compound | Caspase-8 Fold change (Caspase-8) | Caspase-8 Conc. (Caspase-8) | Bcl-2 Fold reduction (Bcl-2) | Bcl-2 Conc. (Bcl-2) | Caspase-8 Conc. (Caspase-8; listed as staurosporine)
COc1ccc(-n2cc(CSc3nc4ccccc4c(=O)n3-c3ccc(C)cc3)nn2)cc1 [Compound 8g, 2-(((1-(4-Methoxyphenyl)-1H-1,2,3-triazol-4-yl)methyl)thio)-3-(p-tolyl)quinazolin-4(3H)-one] | 28 | 2.60 ng/mL and 2.60 ± 0.20 ng/mL | 7 | 0.70 ng/mL | –
Cc1ccc(-n2cc(CSc3nc4ccccc4c(=O)n3-c3ccc(C)cc3)nn2)cc1 [Compound 8h, 2-(((1-(p-Tolyl)-1H-1,2,3-triazol-4-yl)methyl)thio)-3-(p-tolyl)quinazolin-4(3H)-one] | 23 | 2.10 ng/mL and 2.10 ± 0.20 ng/mL | 6 | 0.90 ng/mL | –
CN[C@@H]1C[C@H]2O[C@@](C)([C@@H]1OC)n1c3ccccc3c3c4c(c5c6ccccc6n2c5c31)C(=O)NC4 [Staurosporine, reference compound] | 20 | 1.80 ± 0.10 ng/mL | 5 | 1.10 ng/mL | 1.80 ng/mL
